One assay has as its system animal model of DMD. The following applies: literature (Bizario 2009; Huang 2009; Ito 2013); cited from earlier work.
Assay [1] has as its system mdx mice. Description: Electroneurography (amplitude of motor evoked potentials / CMAP) in mdx mice, 1st study. The conditions noted are these: mdx mice aged 10 months, 60 mg/kg once daily intragastrically, 4 weeks; versus non-treated mdx mice; statistically significant in tibialis anterior. It counts as in vivo, mouse. From the text: The mdx mouse is a well characterized and widely used animal model for drug tests for DMD (Bulfield et al., Proc Natl Acad Sci USA 1984, 81, 1189-92). Mdx mice spontaneously develop a pathology resembling aspects of the human disease. They present cycles of degeneration and regeneration in the limb muscles and a progressive degeneration and fibrosis in the diaphragm (Coirault et al., J Appl Physiol 2003, 94, 1744-50). The first wave of degeneration peaks in the fourth week of life. At day 21, muscular lesions can be observed, including myofiber necrosis, leaking myofibers as a consequence of injuries to the sarcolemma, high levels of serum creatine kinase, and the presence of large areas of inflammation, connective tissue, and fat (Collins and Morgan, Int J Exp Pathol 2003, 84, 165-72; Grounds et al., Neurobiol Dis 2008, 31, 1-19). Compulsory physical activity can be applied to exacerbate the muscular degeneration during this phase (De Luca et al., Am J Pathol 2005, 166, 477-89; Grounds et al., Neurobiol Dis 2008, 31, 1-19). The treatment of the mdx mice with nintedanib started at an age of 10 months in the 1st study and at 6 weeks in a 2nd study. […] In the group of the nintedanib-treated mdx mice, an increase in the amplitude of the motor evoked potentials in all nerves studied was detected in comparison to non-treated mdx mice (FIG. 1A-C). […]

Assay [2] relates to mdx mice. Nature of the assay: Electromyography (percentage of small, medium and large MUAPs) in mdx mice, 1st study. It counts as in vivo, mouse. The following applies: mdx mice aged 10 months, 60 mg/kg once daily intragastrically, 4 weeks. From the text: The mdx mouse is a well characterized and widely used animal model for drug tests for DMD (Bulfield et al., Proc Natl Acad Sci USA 1984, 81, 1189-92). Mdx mice spontaneously develop a pathology resembling aspects of the human disease. They present cycles of degeneration and regeneration in the limb muscles and a progressive degeneration and fibrosis in the diaphragm (Coirault et al., J Appl Physiol 2003, 94, 1744-50). The first wave of degeneration peaks in the fourth week of life. At day 21, muscular lesions can be observed, including myofiber necrosis, leaking myofibers as a consequence of injuries to the sarcolemma, high levels of serum creatine kinase, and the presence of large areas of inflammation, connective tissue, and fat (Collins and Morgan, Int J Exp Pathol 2003, 84, 165-72; Grounds et al., Neurobiol Dis 2008, 31, 1-19). Compulsory physical activity can be applied to exacerbate the muscular degeneration during this phase (De Luca et al., Am J Pathol 2005, 166, 477-89; Grounds et al., Neurobiol Dis 2008, 31, 1-19). The treatment of the mdx mice with nintedanib started at an age of 10 months in the 1st study and at 6 weeks in a 2nd study. […] In the electromyography the percentage of small, medium and large motor unit action potentials (MUAPs) were recorded (Gordon et al., Can J Physiol Pharmacol 2004, 82, 645-661).

The test system of assay [3] is mdx mice. Description: Histological analysis of muscular fibrosis incl. immunofluorescent staining for collagen VI in mdx mice, 1st study. Type of assay: in vivo, mouse. The protocol:
The treatment of the mdx mice with nintedanib started at an age of 10 months in the 1st study and at 6 weeks in a 2nd study. Treatment duration was 4 weeks in the 1st study and 7 weeks in the 2nd study. Nintedanib was used at a dose of 60 mg/kg once daily administered intragastrically via gavage in both studies.
(§1) In the 1st study, 7 mdx mice were treated with nintedanib, 5 mdx mice with the vehicle as placebo and 5 C57Bl6/mice (=wild type=WT) were used as unaffected, untreated control animals. At the end of the 1st study, electrophysiological examinations using electroneurography and electromyography and a histological analysis were performed. In addition, the level of collagen I expression was investigated using western blot in 4 mice of each test group.
At the end of the 1st study, the diaphragm from non-treated mdx mice had increased fibrotic tissue areas, compared to WT mice, and inflammatory infiltrates.
The fibrotic area of the muscles was assessed using immunofluorescent staining for collagen VI (Col VI). 8 photographs from different muscle sections of the quadriceps, tibialis anterior and diaphragm were randomly taken. […] The reduction of 7% by nintedanib treatment was statistically significant (p<0.001) (FIG. 3A).

The subject of assay [4] is mdx mice. Nature of the assay: Collagen I expression by western blotting in muscle tissue of mdx mice, 1st study. Type of assay: in vivo, mouse. The conditions noted are these: western blot, normalized to alpha-tubulin; versus mdx mice; 60 mg/kg once daily, 4 weeks. How it is done:
as §1, with “The treatment of the mdx mice with nintedanib started at an age of 10 months in the 1st study and at 6 weeks in a 2nd study. Treatment duration was 4 weeks in the 1st study and 7 weeks in the 2nd study. Nintedanib was used at a dose of 60 mg/kg once daily administered intragastrically via gavage in both studies. In the” for “In the”
Background: In western blotting, separated proteins are transferred to a membrane and probed.

The test system of assay [5] is mdx mice. Description: Hanging wire test in mdx mice, 2nd study. Type of assay: in vivo, mouse. The conditions noted are these: mdx mice from 6 weeks of age, 60 mg/kg once daily intragastrically. How it is done: The treatment of the mdx mice with nintedanib started at an age of 10 months in the 1st study and at 6 weeks in a 2nd study. Treatment duration was 4 weeks in the 1st study and 7 weeks in the 2nd study. Nintedanib was used at a dose of 60 mg/kg once daily administered intragastrically via gavage in both studies. In the 2nd study, 7 mdx mice were treated with nintedanib, 5 mdx mice with the vehicle as placebo and no WT control was included as unaffected, untreated control animals. At the end of the 2nd study, a hanging wire test was performed. In the 2nd study a so called “hanging wire” test was performed (see section Examples and Experimental Data; Rabl et al., BMC Neurosci 2017, 18, 22). This test can be used to assess global “subacute” muscle function and coordination over time in young and old mdx mice. The longest suspension time (LST) and the “fall and reaches” score (FRS) were recorded before the start of the treatment period and after 7 weeks of treatment with nintedanib. […]

SMILES strings stand for the structures.

In the case of `Cc1ccc(NC(=O)c2ccc(CN3CCN(C)CC3)cc2)cc1Nc1nccc(-c2cccnc2)n1` [imatinib], the “efficacy in an animal model of DMD” value with animal model of DMD was “had shown efficacy”.
On to `COC(=O)c1ccc2c(c1)NC(=O)/C2=C(\Nc1ccc(N(C)C(=O)CN2CCN(C)CC2)cc1)c1ccccc1` [nintedanib, Nintedanib], for which the “amplitude of the motor evoked potentials (CMAP) in all nerves studied (tibialis anterior, Gastrocnemius, Plantar muscle)” value in the assay on mdx mice [1] was “increase”. Moreover, in the assay with mdx mice [2], the “large MUAPs” value is on record as “increase” and the “percentage of small MUAPs” value was “normalized”. The “reduction of mean Col VI-stained fibrotic area of the diaphragma by treatment” value in the assay with mdx mice [3] (difference to non-treated mdx mice, p<0.001) worked out at 7%. Further, the “inflammatory infiltrates in the diaphragm (histology)” value in the assay with mdx mice [3] (mdx mice aged 10 months, 60 mg/kg once daily intragastrically, 4 weeks) is recorded as “not observed”. Moreover, the “fibrotic area of the diaphragm (histology)” value with mdx mice [3] (mdx mice aged 10 months, 60 mg/kg once daily intragastrically, 4 weeks, versus non-treated mdx mice) is listed as “clearly reduced”. In addition, the “Col VI staining in tibialis anterior sections” value in the assay with mdx mice [3] (mdx mice aged 10 months, 60 mg/kg once daily, 4 weeks, non-treated mdx 21.4%, p=0.06, not statistically significant) is 18.9%. The “Col VI staining in quadriceps sections” value with mdx mice [3] (mdx mice aged 10 months, 60 mg/kg once daily, 4 weeks, non-treated mdx 25.4%, p=0.03) is listed as 23.1%. Further, the “mean fibrotic area stained for Col VI on the diaphragma” value in the assay with mdx mice [3] (mdx mice aged 10 months, 60 mg/kg once daily, 4 weeks, non-treated mdx 57.8%, p<0.001) was 50.8%. Also, in the assay on mdx mice [4], the “collagen I (Col I) expression in the diaphragm” value is listed as “statistically significant decrease” and the “collagen I (Col I) expression in the tibialis anterior” value is on record as “statistically significant decrease”. For the same molecule, the “"fall and reaches" score (FRS)” value in the assay on mdx mice [5] (7 week observation period, decreased in vehicle-treated mice) was “remained nearly constant”. The “longest suspension time (LST)” value in the assay with mdx mice [5] (after 7 weeks of treatment versus before start) is on record as “increased”.
